Patent publication US20070270362A1, “Methods and compositions for prevention or treatment of inflammatory-related diseases and disorders” (The University of Washington, priority 2006, published 2007)
“Also recorded” adds a separate entry of the source.

Tests used:
[1] = test system: Jurkat cells or PBMC adhering to cytochalasin D-retracted BAEC or BAEC-derived matrix; test: Ligand-induced adhesion (LIA) of unstimulated lymphocytes to retracted EC or EC matrix; type: cell-based, human; conditions: for adhesion to retracted BAEC or EC matrix (LIA): Jurkat or PBMC treated with 20 μM inhibitor for 30 min, adhesion 30 min; for ligand-induced cell adhesion: same dose (1 μM) treatment of Jurkat cells
Method: (§1) Cells. Jurkat cells and Ramos B cells were obtained from the American Type Culture Collection (ATCC) and were cultured in RPMI (Mediatech, Herndon Va.) supplemented with glutaMAX-1 (Invitrogen, Carlsbad Calif.), 1 mM sodium pyruvate (BioWhittaker, Walkersville Md.), nonessential amino acids (NEAA) (BioWhittaker) and 10% fetal bovine serum (FBS) (Hyclone, Logan Utah). Peripheral blood was obtained from healthy donors with informed consent according to protocols approved by the Human Subjects Review Committee of the University of Washington. PBMC were isolated by Ficoll-Hypaque (Pharmacia, Piscataway, N.J.) gradient centrifugation and washed with PBS. HUVEC were isolated and cultured as previously described (Schwartz et al., J Immunol 162: 4842-8, 1999) and were grown in RPMI 1640 with supplemented with 2 mM glutamine, sodium pyruvate, NEAA, 10 mM HEPES, 100 U/ml penicillin, 100 U/ml streptomycin, 250 ng/ml fungizone (BioWhittaker), 90 mg/ml heparin (Sigma, St. Louis, Mo.), bovine hypothalamic extract (gift of E. Raines, University of Washington, Seattle, Wash.), and 10% bovine calf serum supplemented with iron (HyClone). HUVEC were cultured on surfaces coated with 2% gelatin (Sigma). BAEC were a gift of Helene Sage (Hope Heart Institute, Seattle Wash.) and were grown in DMEM (Mediatech) supplemented with glutaMAX-1, sodium pyruvate and 8% FBS. EC matrix was prepared by lysis of a confluent layer of EC with 20 mM NH4OH at 37° C. for 5 min (Kato and Gospodarowicz, J Cell Biol 100: 486-95, 1985) and blocked briefly with growth medium. Adhesion assays. Lymphocytes were labeled with 2.5 mM calcein-AM (Molecular Probes, Eugene, Oreg.) at room temperature for 20-40 min, washed, and resuspended in HBSS with calcium and magnesium (Mediatech) supplemented with 0.1% BSAnd 4 mM HEPES. Lymphocytes were incubated with inhibitors or function-blocking antibodies at 37° C. for 15-30 min and tested for LIA or phorbol ester-stimulated adhesion to EC or to EC matrix for 15-30 min at 37° C. Adhesion was measured by a Cytofluor Series 4000 fluorescence plate reader (PerSeptive Biosystems, Framingham, Mass.). Plates were scanned before and after washing for total and adherent cells, respectively. Statistical significance was deteremined by Student's t-Test. In some cases, EC were labeled with Cell Tracker Orange (Molecular Probes) per manufacturers instructions prior to adhesion. Cells were fixed after adhesion assays and adherent cells were directly visualized by fluorescent microscopy. Underlying fibronectin fibrils were visualized with polyclonal anti-bovine fibronectin antibody (Accurate), followed by Alexa-568 conjugated secondary antibody (Molecular Probes).

BAEC or HUVEC monolayer = test: Lymphocyte adhesion to endothelial cells treated with retracting or apoptosis-inducing agents; type: cell-based; conditions: for lymphocyte adhesion to EC treated with the agent: BAEC or HUVEC
Method: as §1, with “HUVEC were isolated and cultured as previously described (Schwartz et al., J Immunol 162: 4842-8, 1999) and were grown in RPMI 1640 with supplemented with 2 mM glutamine, sodium pyruvate, NEAA, 10 mM HEPES, 100 U/ml penicillin, 100 U/ml streptomycin, 250 ng/ml fungizone (BioWhittaker), 90 mg/ml heparin (Sigma, St. Louis, Mo.), bovine hypothalamic extract (gift of E. Raines, University of Washington, Seattle, Wash.), and 10% bovine calf serum supplemented with iron (HyClone).” left out, “EC matrix was prepared by lysis of a confluent layer of EC with 20 mM NH4OH at 37° C. for 5 min (Kato and Gospodarowicz, J Cell Biol 100: 486-95, 1985) and blocked briefly with growth medium.” left out, “microscopy.” for “microscopy. Underlying fibronectin fibrils were visualized with polyclonal anti-bovine fibronectin antibody (Accurate), followed by Alexa-568 conjugated secondary antibody (Molecular Probes).”

Jurkat cells = conditions: 1 μM treatment of Jurkat cells; previously reported; cited from earlier work
[2] = test system: PBMC migrating through confluent HUVEC monolayer; test: Transendothelial migration assay; type: cell-based, human
Method: Flow cytometry. Integrin subunit expression levels were analyzed by a FACScan (Becton Dickinson) instrument. Analyzed cells were incubated in integrin antibodies for 30 min, followed by incubation with fluorescein-labeled secondary antibodies for 30 mins. Migration Assays. Calcein-labeled PBMC were treated with purvanalol for 15 min, then added to a confluent monolayer of HUVEC grown on collagen-coated transwell (3 micron pore size, Costar-Corning). PBMC were allowed to migrate for 4 hours at 37° C. Number of migrated cells in bottom chamber was counted. […] In addition, in some experiments, equal numbers of PBMC were allowed to adhere to HUVEC, then treated with purvanaol, to verify that differences in migration were not simply due to differences in initial adhesion. All assays were performed in triplicate. Integrity of the endothelial monolayer was verified by measurements of transendothelial resistance before and after migration assay.

[3] = test system: retinoblastoma protein (Rb), Cdk2 specific site (T821) and Cdk4 specific site (249/252); test: Western blot of Rb phosphorylation with phospho-specific antibodies; type: cell-based; conditions: Jurkat cells, 20 μM, 30 min
Method: Western Blot Analysis. Equal numbers of Jurkat cells (1×10^6) were lysed in buffer containing 50 mM Hepes, pH 7.5, 10 mM NaCl, 5 mM MgCl2, 1 mM EGTA, 1 μg/ml leupeptin, 1 μg/ml aprotinin, 1% triton, and 10% glycerol and Complete Mini Protease Inhibitor Cocktail (Roche). Equal amounts of protein were separated by SDS-PAGE, transferred to Immobilon and blocked for 1 hour. Blots were incubated with primary antibody for 1 hour, followed by peroxidase-conjugated secondary antibody for 1 hour and then developed with Enhanced Chemiluminescence (ECL, Amersham). […] Anti-Cdk2 and anti-Cdk4 antibodies were obtained from eBioscience.

C[C@@H](N)[C@H]1CC[C@H](C(=O)Nc2ccncc2)CC1 [Y-7632]
inhibition of LIA by inhibitors of other pathways [1]: did not inhibit LIA

CC(=O)O[C@H]1C(=O)[C@@]2(C)[C@H]([C@H](OC(=O)c3ccccc3)[C@]3(O)C[C@H](OC(=O)[C@H](O)[C@@H](NC(=O)c4ccccc4)c4ccccc4)C(C)=C1C3(C)C)[C@]1(OC(C)=O)CO[C@@H]1C[C@@H]2O [paclitaxel]
endothelial cell retraction (BAEC or HUVEC monolayer): failed to induce retraction
lymphocyte adhesion to EC treated with the agent (BAEC or HUVEC monolayer): failed to produce comparable lymphocyte adhesion

CC(C)[C@H](CO)Nc1nc(Nc2cc(N)cc(Cl)c2)c2ncn(C(C)C)c2n1 [aminopurvalanol A]
adhesion to retracted BAEC or EC matrix (LIA) [1]: block ligand-induced adhesion; also recorded: significantly reduced

O=c1c(-c2ccc(O)cc2)coc2cc(O)cc(O)c12 [genistein]
inhibition of LIA by inhibitors of other pathways [1]: did not inhibit LIA

C=C1[C@@H](C)[C@H]2[C@H](Cc3ccccc3)NC(=O)[C@]23[C@H](OC(C)=O)/C=C/[C@@](C)(O)C(=O)[C@@H](C)C/C=C/[C@H]3[C@@H]1O [cytochalasin D]
endothelial cell retraction (BAEC or HUVEC monolayer): caused endothelial cell retraction
PBMC adhesion to treated EC versus untreated EC (BAEC or HUVEC monolayer; PBMC): 5-6 fold
phorbol ester-stimulated cell adhesion (Jurkat cells): Inhibited by cytochalasin D
ligand-induced cell adhesion [1]: Not affected by cytochalasin D
ligand-induced cell adhesion ([1]; listed as cytochalasin): no affect

COc1cc2c(c(OC)c1OC)-c1ccc(OC)c(=O)cc1[C@@H](NC(C)=O)CC2 [colchicine]
endothelial cell retraction (BAEC or HUVEC monolayer): failed to induce retraction
lymphocyte adhesion to EC treated with the agent (BAEC or HUVEC monolayer): failed to produce comparable lymphocyte adhesion

CC[C@]1(O)C[C@@H]2CN(CCc3c([nH]c4ccccc34)[C@@](C(=O)OC)(c3cc4c(cc3OC)N(C)[C@H]3[C@@](O)(C(=O)OC)[C@H](OC(C)=O)[C@]5(CC)C=CCN6CC[C@]43[C@@H]65)C2)C1 [vinblastine]
endothelial cell retraction (BAEC or HUVEC monolayer): failed to induce retraction
lymphocyte adhesion to EC treated with the agent (BAEC or HUVEC monolayer): failed to produce comparable lymphocyte adhesion

CC[C@H](CO)Nc1nc(NCc2ccccc2)c2ncn(C(C)C)c2n1 [roscovitine]
adhesion to retracted BAEC or EC matrix (LIA) [1]: block ligand-induced adhesion; also recorded: significantly reduced

latrunculin
endothelial cell retraction (BAEC or HUVEC monolayer): caused endothelial cell retraction

O=C(O)CN(CCN(CC(=O)O)CC(=O)O)CC(=O)O [EDTA]
endothelial cell retraction (BAEC or HUVEC monolayer): caused endothelial cell retraction

CN[C@@H]1C[C@H]2O[C@@](C)([C@@H]1OC)n1c3ccccc3c3c4c(c5c6ccccc6n2c5c31)C(=O)NC4 [staurosporine]
endothelial cell retraction (BAEC or HUVEC monolayer): caused endothelial cell retraction

CC(C)[C@H](CO)Nc1nc(Nc2cccc(Cl)c2)c2ncn(C(C)C)c2n1 [purvalanol A]
initial adhesion of PBMC to confluent endothelial cells [2]: did not affect initial adhesion
PBMC migration through confluent endothelial monolayer ([2]; HUVEC on transwell): inhibited
phosphorylation of Rb at Cdk2 site (T821) and Cdk4 site (249/252) [3]: block Rb phosphorylation
adhesion to retracted BAEC or EC matrix (LIA) [1]: block ligand-induced adhesion; also recorded: significantly reduced

COc1cccc(-c2cc(=O)c3ccccc3o2)c1N [PD98059]
inhibition of LIA by inhibitors of other pathways [1]: did not inhibit LIA

Thrombin
endothelial cell retraction (BAEC or HUVEC monolayer): caused endothelial cell retraction
increase of Jurkat cell adhesion to treated BAEC (BAEC or HUVEC monolayer; Jurkat cells, BAEC): 4-5 fold

COC(=O)Nc1nc2cc(C(=O)c3cccs3)ccc2[nH]1 [nocadozole]
endothelial cell retraction (BAEC or HUVEC monolayer): failed to induce retraction
lymphocyte adhesion to EC treated with the agent (BAEC or HUVEC monolayer): failed to produce comparable lymphocyte adhesion
